Measured values as given in ChEMBL document CHEMBL1201862, “PubChem BioAssay data set” (2004).
The source made the active and inactive calls.

Legend:
[1] = viability of uninfected HEp-2 cells – cell-based, HTS, cytotoxicity control for RSV inhibitor project, dose response (AID 2410); format: functional; conditions: human respiratory syncytial virus
Protein skinhead-1 = target: T1, Protein skinhead-1 (Caenorhabditis elegans, UniProt P34707); format: functional
T1 sequence (P34707 whole entry): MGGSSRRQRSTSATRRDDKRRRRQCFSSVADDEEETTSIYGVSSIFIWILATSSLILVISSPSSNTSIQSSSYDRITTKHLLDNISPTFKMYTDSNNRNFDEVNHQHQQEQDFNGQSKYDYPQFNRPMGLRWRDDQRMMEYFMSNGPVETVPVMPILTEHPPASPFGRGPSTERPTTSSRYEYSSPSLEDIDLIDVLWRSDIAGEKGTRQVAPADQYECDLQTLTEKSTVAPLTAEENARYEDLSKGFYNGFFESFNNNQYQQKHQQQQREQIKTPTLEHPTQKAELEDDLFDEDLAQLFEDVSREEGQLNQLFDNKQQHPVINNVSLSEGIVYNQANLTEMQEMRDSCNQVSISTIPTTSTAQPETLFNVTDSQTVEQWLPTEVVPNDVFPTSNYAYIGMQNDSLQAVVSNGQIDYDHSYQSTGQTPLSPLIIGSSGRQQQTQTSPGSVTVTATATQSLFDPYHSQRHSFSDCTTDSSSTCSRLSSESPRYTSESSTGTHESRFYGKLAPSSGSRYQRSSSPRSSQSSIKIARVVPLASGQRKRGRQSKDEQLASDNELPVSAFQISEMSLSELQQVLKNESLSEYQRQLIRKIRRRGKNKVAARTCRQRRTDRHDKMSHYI

Streptokinase A = target: T2, Streptokinase A (Streptococcus pyogenes serotype M1, UniProt P10520); test: viability-normalized secreted streptokinase activity reduction – plasminogen activation absorbance, OD405, dose response (AID 1914); format: functional, Streptococcus pyogenes M1 GAS;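 further: secreted streptokinase activity via plasminogen activation per viability signal from cell pellet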
T2 sequence (P10520 whole entry): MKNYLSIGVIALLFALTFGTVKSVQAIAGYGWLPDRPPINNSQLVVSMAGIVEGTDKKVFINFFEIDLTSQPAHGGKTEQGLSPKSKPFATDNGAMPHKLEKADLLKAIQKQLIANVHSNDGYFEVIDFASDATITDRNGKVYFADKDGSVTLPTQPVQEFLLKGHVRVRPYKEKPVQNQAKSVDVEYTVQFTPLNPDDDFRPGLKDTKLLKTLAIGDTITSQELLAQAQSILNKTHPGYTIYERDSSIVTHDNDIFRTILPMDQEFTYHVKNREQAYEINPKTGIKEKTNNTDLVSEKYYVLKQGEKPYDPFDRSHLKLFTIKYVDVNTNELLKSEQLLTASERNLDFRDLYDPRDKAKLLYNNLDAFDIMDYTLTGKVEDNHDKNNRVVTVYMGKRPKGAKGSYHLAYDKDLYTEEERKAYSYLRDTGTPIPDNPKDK

Streptococcus = test: GAS UMAA2166 growth inhibition – luminescence, BacTiterGlo, counter-screen for streptokinase expression inhibitor project, dose response (AID 1915); format: functional, organism-based;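 further: potency for reduction of bacterial viability or growth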
[2] = system: Streptococcus sp. 'group A'; test: Streptococcus pyogenes SK(-)GAS viability under kanamycin – luminescence, BacTiterGlo, confirmation, counter-screen for streptokinase expression inhibitor project, dose response (AID 1900); format: functional, organism-based
[3] = target: T3, Rac GTPase-activating protein 1 (Homo sapiens, UniProt Q9H0H5); test: blockers of MgcRacGAP-driven Rac1 GTP hydrolysis – biochemical, ADP Hunter fluorescence, primary and confirmatory, confirmation (AID 624330); format: functional
T3 sequence (Q9H0H5 whole entry): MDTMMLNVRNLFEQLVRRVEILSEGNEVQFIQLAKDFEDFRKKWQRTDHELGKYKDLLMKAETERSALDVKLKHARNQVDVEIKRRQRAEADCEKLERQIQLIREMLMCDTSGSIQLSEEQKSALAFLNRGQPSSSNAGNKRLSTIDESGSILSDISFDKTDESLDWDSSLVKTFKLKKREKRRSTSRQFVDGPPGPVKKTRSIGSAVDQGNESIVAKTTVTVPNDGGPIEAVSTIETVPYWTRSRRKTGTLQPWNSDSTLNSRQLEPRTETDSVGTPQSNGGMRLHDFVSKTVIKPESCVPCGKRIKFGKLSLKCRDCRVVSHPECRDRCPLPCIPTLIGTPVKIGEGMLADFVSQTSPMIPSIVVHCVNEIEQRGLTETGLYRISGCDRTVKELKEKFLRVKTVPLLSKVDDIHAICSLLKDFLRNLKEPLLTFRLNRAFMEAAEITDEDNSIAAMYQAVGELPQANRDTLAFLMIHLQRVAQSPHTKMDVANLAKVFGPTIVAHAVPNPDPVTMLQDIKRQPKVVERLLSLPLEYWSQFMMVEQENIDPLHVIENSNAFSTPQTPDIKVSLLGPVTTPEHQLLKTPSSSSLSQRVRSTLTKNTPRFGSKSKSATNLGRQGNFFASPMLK

[4] = Luminescence Cell-Based Dose Response HTS to Identify Activators of Luciferase Translation or Activity in H4 […] Cells. [Related pubchem assays: 1829 (Project Summary), 1814 (Primary HTS)]; format: functional
H4 = test: Luminescence Cell-Based Dose Response HTS to Identify Activators of 5'UTR Stem-Loop Driven Prion Protein mRNA Translation in H4 Neuroglioblastoma Cells. [Related pubchem assays: 1829 (Project Summary), 1814 (Primary HTS)]; format: functional; conditions: Homo sapiens
Protein RecA = target: T4, Protein RecA (Mycobacterium tuberculosis, UniProt P9WHJ3); test: Fluorescence Cell-Free Homogeneous Dose Retest to Identify Inhibitors of RecA-Intein Splicing Activity. [Related pubchem assays (depositor defined):AID2097, AID2223, AID489010, AID492950]; format: functional
T4 sequence (P9WHJ3 whole entry): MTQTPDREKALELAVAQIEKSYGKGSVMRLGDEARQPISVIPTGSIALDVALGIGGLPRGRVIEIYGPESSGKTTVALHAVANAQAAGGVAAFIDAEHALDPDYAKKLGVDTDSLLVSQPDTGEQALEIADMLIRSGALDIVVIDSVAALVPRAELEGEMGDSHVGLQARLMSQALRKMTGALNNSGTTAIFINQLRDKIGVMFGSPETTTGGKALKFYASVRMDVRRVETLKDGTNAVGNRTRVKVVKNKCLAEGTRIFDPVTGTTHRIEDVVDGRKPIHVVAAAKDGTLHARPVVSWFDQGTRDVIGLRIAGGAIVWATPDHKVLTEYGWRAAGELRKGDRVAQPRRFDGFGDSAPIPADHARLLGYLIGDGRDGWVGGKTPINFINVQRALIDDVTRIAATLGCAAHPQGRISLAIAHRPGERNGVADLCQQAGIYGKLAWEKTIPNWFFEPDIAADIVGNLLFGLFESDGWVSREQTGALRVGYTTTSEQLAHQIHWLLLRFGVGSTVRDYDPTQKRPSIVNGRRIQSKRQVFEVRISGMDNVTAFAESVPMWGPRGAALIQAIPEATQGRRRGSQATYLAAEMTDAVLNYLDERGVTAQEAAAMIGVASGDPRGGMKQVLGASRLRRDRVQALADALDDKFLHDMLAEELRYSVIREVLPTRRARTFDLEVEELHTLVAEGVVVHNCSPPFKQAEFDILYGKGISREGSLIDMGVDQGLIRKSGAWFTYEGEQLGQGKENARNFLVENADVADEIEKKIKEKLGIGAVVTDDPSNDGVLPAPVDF

[5] = target: T5, Replicative DNA helicase DnaB (Mycobacterium tuberculosis, UniProt P9WMR3); test: DnaB intein splicing inhibitors, dose response, biochemical, cell-free fluorescence (AID 449749); format: functional
T5 sequence (P9WMR3 whole entry): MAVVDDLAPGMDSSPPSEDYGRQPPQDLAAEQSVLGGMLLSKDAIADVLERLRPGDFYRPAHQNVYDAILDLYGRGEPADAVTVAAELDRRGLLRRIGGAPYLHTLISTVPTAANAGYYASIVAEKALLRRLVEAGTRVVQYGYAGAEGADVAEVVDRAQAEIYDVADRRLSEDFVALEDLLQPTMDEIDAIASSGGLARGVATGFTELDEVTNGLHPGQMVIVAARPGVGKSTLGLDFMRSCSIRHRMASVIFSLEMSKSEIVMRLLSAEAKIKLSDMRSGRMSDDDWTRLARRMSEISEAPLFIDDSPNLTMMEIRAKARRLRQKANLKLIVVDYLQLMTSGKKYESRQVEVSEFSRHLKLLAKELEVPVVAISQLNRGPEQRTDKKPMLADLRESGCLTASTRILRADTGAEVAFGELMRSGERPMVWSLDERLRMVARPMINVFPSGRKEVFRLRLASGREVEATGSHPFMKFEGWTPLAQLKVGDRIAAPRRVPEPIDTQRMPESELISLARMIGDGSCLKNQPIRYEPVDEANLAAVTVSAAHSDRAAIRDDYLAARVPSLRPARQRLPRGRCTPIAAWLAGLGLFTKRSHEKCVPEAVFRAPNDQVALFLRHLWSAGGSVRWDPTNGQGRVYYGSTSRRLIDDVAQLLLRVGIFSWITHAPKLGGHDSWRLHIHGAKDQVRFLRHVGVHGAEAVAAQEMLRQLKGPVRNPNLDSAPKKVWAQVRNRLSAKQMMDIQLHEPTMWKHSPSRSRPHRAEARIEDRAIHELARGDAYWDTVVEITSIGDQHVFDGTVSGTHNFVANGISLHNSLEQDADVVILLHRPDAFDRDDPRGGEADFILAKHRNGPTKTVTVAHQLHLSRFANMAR

[6] = target: T6, Heat shock factor protein 1 (Mus musculus, UniProt P38532); test: decrease of HSF1-responsive luciferase luminescence – cell-based, NIH3T3, dose retest, confirmation (AID 2382); format: functional;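 further: NIH3T3 fibroblasts with HSF1-driven luciferase reporter stressed by proteasome inhibitor MG132; luminescence from HSF1-driven luciferase expression after 8 hours of MG132 stress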
T6 sequence (P38532 whole entry): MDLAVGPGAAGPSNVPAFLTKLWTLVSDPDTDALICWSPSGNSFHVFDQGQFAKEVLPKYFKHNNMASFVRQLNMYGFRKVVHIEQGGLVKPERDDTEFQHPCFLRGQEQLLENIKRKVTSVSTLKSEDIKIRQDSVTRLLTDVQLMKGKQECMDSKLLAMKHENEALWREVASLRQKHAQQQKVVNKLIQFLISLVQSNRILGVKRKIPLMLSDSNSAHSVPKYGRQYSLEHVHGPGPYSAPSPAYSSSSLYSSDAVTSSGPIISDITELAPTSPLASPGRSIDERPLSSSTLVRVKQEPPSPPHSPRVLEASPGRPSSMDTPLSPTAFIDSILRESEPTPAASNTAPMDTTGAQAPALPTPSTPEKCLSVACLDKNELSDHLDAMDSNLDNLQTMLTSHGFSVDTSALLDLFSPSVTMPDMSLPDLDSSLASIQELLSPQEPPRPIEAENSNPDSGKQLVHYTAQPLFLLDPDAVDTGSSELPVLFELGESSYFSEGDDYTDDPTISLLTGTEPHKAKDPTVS

Paired box protein Pax-8 = Paired box protein Pax-8 (Homo sapiens, UniProt Q06710); test: PAX8 transcriptional activity inhibition in RMG-I – RMG-I cells, luciferase, cherry-pick, dose response (AID 687027); format: functional, cell-based;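 further: luciferase reporter driven by Pax8 target thyroperoxidase promoter measured by SteadyGlo luminescence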
Chain of Paired box protein Pax-8 (Q06710 whole entry): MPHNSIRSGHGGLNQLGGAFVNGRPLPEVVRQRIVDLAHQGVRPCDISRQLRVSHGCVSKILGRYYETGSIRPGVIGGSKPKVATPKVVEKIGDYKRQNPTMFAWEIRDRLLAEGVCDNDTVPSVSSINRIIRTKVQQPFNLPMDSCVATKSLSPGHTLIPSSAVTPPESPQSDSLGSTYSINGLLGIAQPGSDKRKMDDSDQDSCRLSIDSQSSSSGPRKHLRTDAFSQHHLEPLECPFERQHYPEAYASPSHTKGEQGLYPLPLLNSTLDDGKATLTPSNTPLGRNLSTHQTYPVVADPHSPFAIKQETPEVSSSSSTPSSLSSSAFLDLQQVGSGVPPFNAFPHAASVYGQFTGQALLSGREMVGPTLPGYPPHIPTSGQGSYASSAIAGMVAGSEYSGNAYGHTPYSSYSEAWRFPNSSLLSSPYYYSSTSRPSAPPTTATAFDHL

Compound | CC50 [1] | IC50 (Protein skinhead-1) | further results
CC(=O)c1ccc(NCC2COc3ccccc3O2)c([N+](=O)[O-])c1 (stereo not given) | > 50 µM (active) |  | 
Cc1[nH]c2ccccc2c1SCc1ccccc1 |  | 42.6 µM (active) | 
O=C(Nc1ccc2c(c1)CCC2)c1ccc(Cl)nc1 | 36.7 µM (active) |  | 
Cc1ccc2c(c1)CCCN2C(=O)CSc1ccccc1 | 47.2 µM (active) |  | 
COc1ccc(C2CC(c3ccccc3)=NN2C(=O)c2cccs2)cc1 (stereo not given) |  | > 100 µM (inactive) | EC50 (Streptokinase A): > 150 µM (not active); EC50 (Streptococcus): 12.4 µM (active); EC50 [2]: 4.88 µM (active)
O=S(=O)(c1ccccc1C(F)(F)F)N1CCC(c2nc(O)c3nnn(Cc4cccc(F)c4)c3n2)CC1 | 32.2 µM (active) |  | 
O=C1C=C(c2ccc3ncccc3c2)C[C@@H](c2ccc(F)cc2)C1 | 30 µM (active) |  | 
COc1ccc2nc(-c3ccc(Cl)cc3)cc(C(=O)O)c2c1 | 19.9 µM (active) |  | 
CC(=O)N1CCN(c2ccc(NCc3ccc(C(C)C)cc3)cc2)CC1 |  | > 100 µM (inactive) | IC50 [3]: 10.4 µM (active)
Fc1ccc(N2CCN(c3cnc4ccccc4n3)CC2)cc1 |  | 72.8 µM (inactive) | EC50 [4]: 0.244 µM (active); EC50 (H4): 12.8 µM (active)
CSCC[C@H](N)C(=O)N1CCC(C(=O)N[C@@H](Cc2c[nH]c3ccccc23)C(=O)O)CC1 |  | > 100 µM (inactive) | 
CC(C)C(c1nnnn1Cc1ccco1)N1CCN(C2CCCC2)CC1 (stereo not given) |  | > 100 µM (inactive) | 
Cc1cc(O)ccc1Nc1nc(-c2cccs2)cs1 | 21 µM (active) |  | IC50 [3]: 46.5 µM (active); EC50 (Protein RecA): 11.5 µM (active); AC50 [5]: 13.2 µM (active)
Cc1cc(Nc2ccccc2C(=O)O)n(-c2cccc(Cl)c2)n1 | 30.9 µM (active) |  | 
O=C(NCc1ccco1)c1sc2cc(Cl)ccc2c1Cl |  | > 100 µM (inactive) | 
CCc1ccc(Nc2oc(C)cc(=O)c2C(C)=O)cc1 |  | > 100 µM (inactive) | 
CN1/C(=C\C(=O)Nc2cccc(Cl)c2)C(C)(C)c2ccccc21 |  | > 100 µM (inactive) | 
COc1ccccc1C(=O)Nc1ccc2c(c1)nc(CCNC(=O)c1ccccc1)n2C |  | > 100 µM (inactive) | 
CCCCCOC(=O)c1ccc(NC(=O)c2ccco2)cc1 |  | > 100 µM (inactive) | 
Oc1onc(-c2ccccc2)c1-c1ccccc1 |  |  | EC50 [6]: > 195 µM (not active)
CC(C)CCNC(=O)NC(=O)COc1c(F)c(F)cc(F)c1F |  | > 100 µM (inactive) | 
CC1Cc2ccccc2N1S(=O)(=O)c1cccc(C(=O)NC2CC2)c1 (stereo not given) | > 50 µM (active) |  | 
O=S(=O)(Cc1ccc(Cl)cc1)Oc1ccc(Cl)cc1 |  | > 100 µM (inactive) | 
Cn1nccc1C(=O)N1CCC(Cc2ccccc2)CC1 |  | > 100 µM (inactive) | 
COc1ccc(C(c2nnnn2Cc2ccccc2)N2CCC(n3c(O)nc4ccccc43)CC2)cc1 (stereo not given) |  |  | AC50 (Paired box protein Pax-8): 6.91 µM (active)
C/C(=N\NC(=O)C1CC1)c1ccc(Cl)c(Cl)c1 | > 50 µM (active) |  | 
